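96-well plates; 48 h exposure; 5 concentrations. Endpoints by linear interpolation between flanking doses. Not reached: highest tested concentration assigned. Abbreviation: GI50, concentration required for 50% inhibition of growth. TGI denotes the concentration required for complete inhibition of growth.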
Key:
Experiment in all cases: NCI tumour cell line growth inhibition, 48 h
K-562 leukemia = tested on: K-562 leukemia
M14 melanoma = tested on: M14 melanoma
SF-295 CNS = tested on: SF-295 CNS
SK-MEL-2 melanoma = tested on: SK-MEL-2 melanoma
MDA-MB-468 breast = tested on: MDA-MB-468 breast
HCT-116 colon = tested on: HCT-116 colon
A498 renal = tested on: A498 renal
HOP-62 NSCLC = tested on: HOP-62 NSCLC
MDA-MB-435 = tested on: MDA-MB-435
NCI-H23 lung = tested on: NCI-H23 lung
CAKI-1 renal = tested on: CAKI-1 renal
IGROV1 ovarian = tested on: IGROV1 ovarian
MOLT-4 leukemia = tested on: MOLT-4 leukemia
OVCAR-3 ovarian = tested on: OVCAR-3 ovarian
MALME-3M melanoma = tested on: MALME-3M melanoma
786-0 renal = tested on: 786-0 renal
SK-MEL-28 melanoma = tested on: SK-MEL-28 melanoma
RPMI-8226 leukemia = tested on: RPMI-8226 leukemia
OVCAR-4 ovarian = tested on: OVCAR-4 ovarian
SK-OV-3 ovarian = tested on: SK-OV-3 ovarian
UACC-257 melanoma = tested on: UACC-257 melanoma
ACHN renal = tested on: ACHN renal
OVCAR-5 ovarian = tested on: OVCAR-5 ovarian
HL-60(TB) leukemia = tested on: HL-60(TB) leukemia
SF-268 CNS = tested on: SF-268 CNS
NCI-H460 lung = tested on: NCI-H460 lung
HCC-2998 colon = tested on: HCC-2998 colon

## CN(C)c1nc(NCCNS(=O)(=O)c2ccc(C3=Nc4c(N)nc(N)nc4NC(c4ccc(C(F)(F)F)cc4)C3)cc2)nc(Nc2ccc(F)cc2)n1 (centres undefined)
K-562 leukemia
  GI50: 3.51 µM
  TGI: > 86 µM
M14 melanoma
  GI50: 7.87 µM
  TGI: > 86 µM
SF-295 CNS
  GI50: 12.9 µM
  TGI: > 86 µM
SK-MEL-2 melanoma
  GI50: 10.8 µM
  TGI: 24.7 µM
MDA-MB-468 breast
  GI50: 2.67 µM
  TGI: 11.7 µM
HCT-116 colon
  GI50: 5.1 µM
  TGI: > 86 µM
A498 renal
  GI50: 22.2 µM
  TGI: 77.4 µM
HOP-62 NSCLC
  GI50: 31.4 µM
  TGI: > 86 µM
MDA-MB-435
  GI50: 9.13 µM
  TGI: > 86 µM
NCI-H23 lung
  GI50: 27.7 µM
  TGI: > 86 µM
CAKI-1 renal
  GI50: 36.8 µM
  TGI: > 86 µM
IGROV1 ovarian
  GI50: 11.2 µM
  TGI: > 86 µM
MOLT-4 leukemia
  GI50: 2.74 µM
  TGI: > 86 µM
OVCAR-3 ovarian
  GI50: 11.9 µM
  TGI: > 86 µM
MALME-3M melanoma
  GI50: 11.3 µM
  TGI: 24.2 µM
786-0 renal
  GI50: 10.1 µM
  TGI: 39.8 µM
SK-MEL-28 melanoma
  GI50: 15 µM
  TGI: > 86 µM
RPMI-8226 leukemia
  GI50: 4 µM
  TGI: > 86 µM
OVCAR-4 ovarian
  GI50: 25 µM
  TGI: > 86 µM
SK-OV-3 ovarian
  GI50: > 86 µM
  TGI: > 86 µM
UACC-257 melanoma
  GI50: 23.3 µM
  TGI: > 86 µM
ACHN renal
  GI50: > 86 µM
  TGI: > 86 µM
OVCAR-5 ovarian
  GI50: 19.9 µM
  TGI: > 86 µM
HL-60(TB) leukemia
  GI50: 4.07 µM
  TGI: > 86 µM
SF-268 CNS
  GI50: 11.2 µM
  TGI: > 86 µM
NCI-H460 lung
  GI50: 5.49 µM
  TGI: > 86 µM
HCC-2998 colon
  GI50: 4.72 µM
  TGI: 25.9 µM

Reference: PubChem BioAssay (NCI)
